Experimental data published in patent publication US8546137B2, “Inhibition of dendritic cell-driven regulatory T cell activation and potentiation of tumor antigen-specific T cell responses by interleukin-15 and MAP kinase inhibitor” (The Board of Trustees of the University of Arkansas, priority 2007, dated 2013).

Tests used:
[1] = tested on: matriptase 170-204 peptide-specific, DC-activated CD4+ T cells; test: Foxp3 and GITR expression by flow cytometry, CD4+ T cells; format: cell-based, human
Description: (§1) Peripheral blood was drawn from healthy adult volunteer donors, following an IRB-approved protocol. PBMC were recovered by gradient centrifugation (Lymphoprep; Greiner Bio-One, Longwood, Fla.). For preparation of DC, PBMC were placed in 6 well plates (Costar, Cambridge, Mass.) at a concentration of 5×10^6/well in AIM-V medium. After incubation for 2-3 hours at 37° C., non-adherent cells were removed and the medium was replaced with AIM-V plus 800 U/ml GM-CSF and 500 U/ml IL-4. On days 3 and 5, half the medium was removed and replaced with AIM-V plus 800 U/ml GM-CSF and 500 U/ml IL-4. Maturation cytokines (1 μM/ml PGE2, 1000 U/ml TNFα, and 500 U/ml IL-1β) were added on day 5. Where indicated, IL-15 (100 ng/ml) was present throughout DC culture (i.e., from day 0, and supplemented on days 3 and 5). For stimulation of peptide-specific CD4^+ helper T cell and CD8^+ CTL responses, DC were loaded with 50 μg/ml of peptide on day 5 (at the time of addition of maturation cytokines) and the DC were harvested 2 days later. The DC were then washed once with AIM-V medium and used for T cell stimulation at a PBMC:DC ratio of 30:1. After 7 days, T cells were collected and restimulated with peptide-loaded DC. After the second stimulation, CD4^+ or CD8^+ T cells were recovered by positive selection with anti-CD4 or anti-CD8 magnetic beads (Dynabeads, Invitrogen), respectively, yielding populations of at least 95% purity. During the second and subsequent T cell passages (up to a maximum of six restimulations with peptide-loaded DC, at T cell:DC ratios of between 30:1 and 10:1), 20-100 U/ml IL-2 was added to the medium, and the cultures were periodically fed (every 2-3 days) by changing 50-70% of the medium and addition of fresh IL-2. Where indicated, T cell cultures were supplemented with 100 ng/ml IL-15, starting with the second passage.
Foxp3 expression was determined according to the manufacturer's staining protocol (eBioscience), using the provided fixation and permeabilization buffers. Intracellular cytokine expression was measured by flow cytometry after overnight co-culture of T cells with peptide-pulsed or control autologous LCL. T cells (1.5×10^6) were plated in 12 well Costar plates in 2 ml RPMI/10Hu. T cells were stimulated with phorbol myristyl acetate (50 ng/ml) and ionomycin (500 ng/ml) as a positive control. At the onset of co-culture, 10 μg/ml of Brefeldin A was added to block cytokine release. Cells were collected after overnight stimulation and fixed in 2% paraformaldehyde in PBS for 10 minutes at room temperature. The cells were washed once in PBS and again in 0.5% saponin and 1% BSA in PBS. […] Samples were analyzed with a FACSCalibur (Becton-Dickinson) and Cellquest or WinMDI software.

[2] = tested on: matriptase 170-204 peptide-specific, DC-activated CD8+ T cells; test: Foxp3 and GITR expression by flow cytometry, CD8+ T cells; format: cell-based, human
Description: as §1, with “During the second and subsequent T cell passages (up to a maximum of six restimulations with peptide-loaded DC, at T cell:DC ratios of between 30:1 and 10:1), 20-100 U/ml IL-2 was added to the medium, and the cultures were periodically fed (every 2-3 days) by changing 50-70% of the medium and addition of fresh IL-2. Where indicated, T cell cultures were supplemented with 100 ng/ml IL-15, starting with the second passage.” left out
(§2) Foxp3 expression was determined according to the manufacturer's staining protocol (eBioscience), using the provided fixation and permeabilization buffers. Intracellular cytokine expression was measured by flow cytometry after overnight co-culture of T cells with peptide-pulsed or control autologous LCL. […] Samples were analyzed with a FACSCalibur (Becton-Dickinson) and Cellquest or WinMDI software.

[3] = tested on: matriptase 170-204 peptide-specific CD4+ T cells; test: Treg assay: coculture of peptide-specific CD4+ T cells with autologous alloreactive CD4+ T cells (MLR, 3H-TdR); format: cell-based, human
Description: as §1
DC-activated, peptide-specific T cells were tested for Treg activity in 3 day microwell cocultures with autologous alloreactive CD4^+ T cells at a 1:1 ratio. The alloreactive CD4^+ T cells were stimulated with irradiated (7,500 cGy) allogeneic LCL at a 2:1 ratio. Transwell cocultures were conducted in 12-well Costar plates with 0.4 μm polycarbonate membrane inserts, at the same cell ratios as conventional microwell cocultures. Peptide-specific T cells were placed in the upper chamber, and alloreactive CD4^+ T cells plus irradiated allogeneic LCL were placed in the lower chamber. For all assays, proliferation of alloreactive CD4^+ T cells was determined by addition of 1 μCi/well ^3H-TdR for the last 16 hours of incubation. No exogenous cytokines were added to Treg coculture assays. Controls were included to correct for background proliferation of individual cell populations or spontaneous alloreactivity of peptide-specific T cells.

[4] = tested on: matriptase 170-204 peptide-specific CD8+ T cells; test: Treg assay: coculture of peptide-specific CD8+ T cells with autologous alloreactive CD4+ T cells (MLR, 3H-TdR); format: cell-based, human
Description: (§3) Peripheral blood was drawn from healthy adult volunteer donors, following an IRB-approved protocol. PBMC were recovered by gradient centrifugation (Lymphoprep; Greiner Bio-One, Longwood, Fla.). For preparation of DC, PBMC were placed in 6 well plates (Costar, Cambridge, Mass.) at a concentration of 5×10^6/well in AIM-V medium. After incubation for 2-3 hours at 37° C., non-adherent cells were removed and the medium was replaced with AIM-V plus 800 U/ml GM-CSF and 500 U/ml IL-4. On days 3 and 5, half the medium was removed and replaced with AIM-V plus 800 U/ml GM-CSF and 500 U/ml IL-4. Maturation cytokines (1 μM/ml PGE2, 1000 U/ml TNFα, and 500 U/ml IL-1β) were added on day 5. Where indicated, IL-15 (100 ng/ml) was present throughout DC culture (i.e., from day 0, and supplemented on days 3 and 5). For stimulation of peptide-specific CD4^+ helper T cell and CD8^+ CTL responses, DC were loaded with 50 μg/ml of peptide on day 5 (at the time of addition of maturation cytokines) and the DC were harvested 2 days later. […]
DC-activated, peptide-specific T cells were tested for Treg activity in 3 day microwell cocultures with autologous alloreactive CD4^+ T cells at a 1:1 ratio. […] For all assays, proliferation of alloreactive CD4^+ T cells was determined by addition of 1 μCi/well ^3H-TdR for the last 16 hours of incubation. […]

[5] = tested on: matriptase 170-204 peptide-specific CD4+ T cells; test: Intracellular Th1 cytokine (TNFα, IFNγ) expression after challenge with peptide-loaded autologous LCL; format: cell-based, human
Description: as §3, with “5).” for “5). For stimulation of peptide-specific CD4^+ helper T cell and CD8^+ CTL responses, DC were loaded with 50 μg/ml of peptide on day 5 (at the time of addition of maturation cytokines) and the DC were harvested 2 days later.”
as §2

[6] = tested on: peptide-loaded autologous LCL; test: 51Cr-release cytotoxicity assay, CD4+ T cells against peptide-loaded autologous LCL; format: cell-based, human
Description: as §3, with “later. The DC were then washed once with AIM-V medium and used for T cell stimulation at a PBMC:DC ratio of 30:1. After 7 days, T cells were collected and restimulated with peptide-loaded DC.” for “later.”
(§4) Standard ^51Cr-release assays were performed as described (24). […] The percentage of target cell lysis was calculated as described (24).

[7] = tested on: peptide-loaded autologous LCL; test: 51Cr-release cytotoxicity assay, CD8+ T cells against peptide-loaded autologous LCL; format: cell-based, human
Description: as §3, with “later. The DC were then washed once with AIM-V medium and used for T cell stimulation at a PBMC:DC ratio of 30:1. After 7 days, T cells were collected and restimulated with peptide-loaded DC.” for “later.”
as §4

[8] = tested on: hepsin 48-84 peptide-specific CD4+ T cells; test: TNFα expression by CD4+ T cells stimulated with treated DC; format: cell-based, human; details: DC treated throughout culture; IL-15 100 ng/ml, inhibitor 10 μM; relative to standard DC; T cells maintained with IL-2
Description: Foxp3 expression was determined according to the manufacturer's staining protocol (eBioscience), using the provided fixation and permeabilization buffers. Intracellular cytokine expression was measured by flow cytometry after overnight co-culture of T cells with peptide-pulsed or control autologous LCL. T cells (1.5×10^6) were plated in 12 well Costar plates in 2 ml RPMI/10Hu. T cells were stimulated with phorbol myristyl acetate (50 ng/ml) and ionomycin (500 ng/ml) as a positive control. At the onset of co-culture, 10 μg/ml of Brefeldin A was added to block cytokine release. Cells were collected after overnight stimulation and fixed in 2% paraformaldehyde in PBS for 10 minutes at room temperature. The cells were washed once in PBS and again in 0.5% saponin and 1% BSA in PBS. T cells were labeled with cytokine-specific PE or FITC-conjugated mAb for 30 minutes at room temperature. After staining, the cells were washed twice in 0.5% saponin and 1% BSA in PBS, once with 0.5% BSA in PBS, and fixed in 2% paraformaldehyde in PBS. Samples were analyzed with a FACSCalibur (Becton-Dickinson) and Cellquest or WinMDI software.
Treatment of DC with IL-15 and a p38 MAP kinase inhibitor enhances CD4^+ helper T cell TNFα expression in response to tumor antigen stimulation, and diminishes Treg foxp3 expression. […]

[9] = tested on: tumor antigen-specific CD4+ T cells; test: CCR4 and CXCR4 expression by CD4+ T cells stimulated with treated DC; format: cell-based, human; details: treatment of DC
Description: (§5) Treatment of DC with IL-15 and a p38 MAP kinase inhibitor enhances CD4^+ helper T cell TNFα expression in response to tumor antigen stimulation, and diminishes Treg foxp3 expression. DC were treated with IL-15 (100 ng/ml) and/or a p38 MAP kinase inhibitor (10 μM p38 MAP kinase inhibitor III, from Calbiochem, La Jolla, Calif.) throughout their culture (i.e., from day 0 through completion of DC maturation on day 7). DC were loaded with the hepsin 48-84 peptide antigen on day 5 (i.e., at the time of addition of maturation cytokines).

[10] = tested on: tumor antigen-specific CD4+ T cells; test: PD-1 expression by CD4+ T cells stimulated with treated DC; format: cell-based, human; details: treatment of DC
Description: as §5

[11] = tested on: CD25 preferentially expressed by CD4+ Treg; details: patients with renal cell carcinoma, combined with tumor RNA-transfected DC vaccination; cited from earlier work
[12] = IL-15 added to CD4+ T cell cultures activated with conventional DC
[13] = conventional DC or IL-15-treated DC, T cells maintained with IL-2 plus IL-15

For “IL-15: interleukin-15, cytokine from R & D Systems, used at 100 ng/ml in DC and/or T cell culture”, the “Foxp3 expression by CD4+ T cells” value [1, 12] was “did not result in a significant change”, the “frequency of GITR+ CD4+ T cells (total)” value [1, 12] was 8% and the “Foxp3 expression, proportion of CD4+ T cells” value ([1]; activated with IL-15-treated DC (100 ng/ml), maintained with IL-2, conventionally activated cells 33%) was 20%. For the same substance, the “frequency of Foxp3+ and GITR+ CD4+ T cells” value ([1]; activated with IL-15 treated DC and maintained with IL-2 plus IL-15) was “markedly enhanced”, the “Foxp3 expression, proportion of CD8+ T cells” value ([2]; activated with IL-15-treated DC, maintained with IL-2) was 37% and the “GITR expression by CD8+ T cells” value [2, 13] was “did not show increased GITR expression”. For the same substance, the “frequency of Foxp3+ CD8+ T cells” value [2, 13] was “elevated frequencies”, the “restoration of the mixed lymphocyte reaction (CD4+ Treg activity)” value (from here on “restoration”) ([3]; IL-15-treated DC, or IL-15 treatment of CD4+ T cells activated with conventional DC) was “significant restoration” and the “inhibition of the mixed lymphocyte reaction by peptide-specific CD4+ T cells (Treg activity)” value ([3]; T cells cultured with IL-15, or activated by DC cultured with IL-15, or both (bars B, C, D), conventional about 90%) was “less than 60%”. The “restoration” value ([3]; both DC and CD4+ T cells treated with IL-15) was “further enhancement of alloreactivity”, the “restoration” value ([3]; peptide-specific CD4+ T cells irradiated before coculture, IL-15 on DC, T cells or both) was “almost total restoration of the MLR” and the “CD8+ Treg activity” value ([4]; IL-15 treatment of DC alone) was “particularly effective in diminishing”. For the same substance, the “CD8+ regulatory function” value ([4]; IL-15 treatment of DC, of CD8+ T cells, or both) was “markedly diminished”, the “antigen-driven cytokine responses (TNFα, IFNγ) of CD4+ T cells” value ([5]; combined IL-15 treatment of both DC and CD4+ T cells) was “synergistic gain” and the “frequency of CD4+ T cells expressing TNFα and IFNγ” value ([5]; treatment of DC with IL-15 or treatment of CD4+ T cells with IL-15) was “small increment”. The “CD4+ T cell lysis of peptide-loaded LCL” value ([6]; IL-15-treated DC followed by culture with IL-2 plus IL-15, additive) was “further gain in lysis”, the “CD4+ T cell cytotoxicity” value ([6]; IL-15 treatment of DC or CD4+ T cells) was “marked enhancement” and the “gain in lysis, CD8+ T cell cytotoxicity” value ([7]; IL-15 treatment of DC or CD8+ T cells) was “lower than observed for CD4^+ T cell responses”. For the same substance, the “CD8+ T cell cytotoxicity against peptide-loaded LCL” value ([7]; combined treatment of both DC and CD8+ T cells with IL-15) was “strong synergistic increase”, the “CD4+ T cell TNFα expression upon tumor antigen stimulation” value [8] was “did not significantly increase” and the “CD4+ T cell expression of CCR4” value [9] was “slightly inhibited”. For the same substance, the “CD4+ T cell expression of CXCR4” value [9] was “enhances” and the “PD-1 expression by tumor antigen-specific CD4+ helper T cells” value [10] was “markedly reduces”.

In the case of denileukin diftitox, the “Treg in the peripheral blood” value [11] is given as “reduced numbers of Treg” and the “generation of tumor-specific T cell responses” value [11] is given as “enhanced generation of tumor-specific T cell responses”.

In the case of “p38 MAP kinase inhibitor III [reference compound]”, the “CD4+ T cell TNFα expression upon tumor antigen stimulation” value [8] is reported as “did not significantly increase”, the “CD4+ T cell expression of CCR4” value [9] is reported as “markedly enhanced” and the “CD4+ T cell expression of CXCR4” value [9] is reported as “inhibited”. For the same substance, the “PD-1 expression by tumor antigen-specific CD4+ helper T cells” value [10] was “markedly reduces”.
